# Tests used:
# Type in all cases: cell-based, human
# NKR-2 T cells = experiment: Fold expansion / cell yield of NKR-2 (NKG2D CAR) T cells during manufacturing culture; conditions: compared to cells without inhibition of NKG2D signaling
# Experimental: (A) MFI of NKG2D expression on NKR-2 T cells treated or not with increasing concentrations of LY294002. Data shown are mean±SD of N=3 independent donors. (B) Transduced T cells were cultured in complete X-vivo (100 IU/ml IL-2) supplemented or not with increasing concentrations of LY294002 for expansion. T cells were analyzed 96 h after seeding for fold expansion relative to the initial cell seeding density. Data shown are mean±SD of N=3 independent donors. (C) Viability of cells after cryopreservation. NKR-2 T cells were produced in presence of increasing concentration of LY294002. After production, cells were harvested, washed, and formulate for cryopreservation. […] Cells viability was directly assessed after thawing (T0 h) or after 6 hours at 4° C. in Plasmalyte/HSA5% (T6 h) (N=[…]) (D) NKR-2 T cells were produced in presence of increasing concentration of LY294002. […] After 48 hours, cell viability was assessed using trypan blue staining (N=3) and normalized for the number of cells at cryopreservation (E) tCD19 T cells were co-cultured with NKR-2 T cells generated from the same donor in presence of increasing concentrations of blocking Ab (from 0 (−) to 10 μg/ml). […] Following a 24 h incubation, supernatants were harvested and IFN-γ measured (N=3). […]
# FIG. 9: NKR-2 T cells Ab blockade process adaptation restores CD4/CD8 ratio. […] PANC-1 viability was assessed every 2 hours by the IncuCyte S3 device. […]
# K562 or PANC-1 cells = experiment: Cytokine release assay: IFN-γ ELISA after co-culture of NKR-2 T cells with cancer cells; conditions: cells cultured with PI3K inhibitor (5 μM CAL101), compared with blocking NKG2D antibody
# Experimental: Fresh NKR-2 T cells and/or control tCD19 cells were incubated with K562 or PANC-1 cells at a ratio of 1:1 in X-Vivo 15 containing 5% HS. Following an incubation of 24 h supernatants were harvested and IFN-γ measured by ELISA (R&D Systems, SIF50) according to manufacturer's protocol. As a positive control cells were activated with PMA (Sigma-Aldrich, P8139-5MG) and ionomycin (Sigma-Aldrich, 10634-1MG). To assess the background levels of activation the cells received no stimulus.
# Antibody Inhibition Assay NKR-2 T cells were incubated with 1 μg/mL of NKG2D blocking antibody, isotype control or no antibody for 24 hours and subsequently NKR-2 T cells mediated secretion of IFN-γ measured. Similarly, NKR-2 cells were co-cultured with cancer cells in the presence of antibody and cytokine secretion measured.
# NKG2D (CD314) = experiment: Flow cytometry of NKG2D (CD314) cell surface expression on NKR-2 T cells
# Experimental: (A) MFI of NKG2D expression on NKR-2 T cells treated or not with increasing concentrations of LY294002. Data shown are mean±SD of N=3 independent donors. (B) Transduced T cells were cultured in complete X-vivo (100 IU/ml IL-2) supplemented or not with increasing concentrations of LY294002 for expansion. T cells were analyzed 96 h after seeding for fold expansion relative to the initial cell seeding density. Data shown are mean±SD of N=3 independent donors. (C) Viability of cells after cryopreservation. NKR-2 T cells were produced in presence of increasing concentration of LY294002. After production, cells were harvested, washed, and formulate for cryopreservation. After cryopreservation, cells were thawed using a water bath and resuspended in Plasmalyte/Human Serum Albumin (HSA) 5%. Cells viability was directly assessed after thawing (T0 h) or after 6 hours at 4° C. in Plasmalyte/HSA5% (T6 h) (N=[…]) (D) NKR-2 T cells were produced in presence of increasing concentration of LY294002. […] After 48 hours, cell viability was assessed using trypan blue staining (N=3) and normalized for the number of cells at cryopreservation (E) tCD19 T cells were co-cultured with NKR-2 T cells generated from the same donor in presence of increasing concentrations of blocking Ab (from 0 (−) to 10 μg/ml). […] Following a 24 h incubation, supernatants were harvested and IFN-γ measured (N=3). […]
smiles,measurement,setting,value
Nc1cccc(-c2cc3c(Oc4cccc(O)c4)ncnc3[nH]2)c1 [TWS119],expansion with downstream inhibitors of the PI3K pathway,NKR-2 T cells,expansion is increased
"CC[C@H](Nc1ncnc2[nH]cnc12)c1nc2cccc(F)c2c(=O)n1-c1ccccc1 [Cal-101, idelalisib]",IFN gamma secretion post co-culture with K562 cells,K562 or PANC-1 cells,produce more interferon
O=c1cc(N2CCOCC2)oc2c(-c3ccccc3)cccc12 [LY294002],concentration at which NKG2D expression reaches the level of control tCD19 T cells,NKG2D (CD314),10 µM

# — patent US11639496B2, “Reducing fratricide of immune cells expressing NKG2D-based receptors” (CELYAD S.A, priority 2017, dated 2023)
